Assay results reported in patent publication US20230286948A1 (HUYABIO International, LLC, priority 2022, published 2023).

System: MV-411 cells
Assay: Anti-proliferative activity against MV-411 leukemia cells (CellTiterGlo viability, 72 h)
Format: cell-based
Conditions: MV-411 human acute monocytic leukemia cells, a second value in parentheses is a further determination
Protocol: Procedure: MV-411 cells were seeded into 384 well plates at 2000 cells/well density in 50 μL total volume, according to plate map and were allowed to naturally sediment by waiting about 30 min on a Clean Bench. Next, plated cells were centrifuged for 1 min at 1000 rpm and the excess cells were transferred into the flasks for further culture. Cells in the assay plates were incubated (at least 4 hrs.) at 37° C., 5% CO2 followed by adding the compounds as the plate map indicated. The tests were performed in duplicates with treatment of compounds at 10 pts 3-fold titration in 384 well plates. Taxol was used as positive control while DMSO as negative control. To rule out edge effect, the wells on the edge were not seeded and therefore one 384 well plate holds 13 compounds. Cells viability was measured 72h after incubation with compounds using CellTiterGlo (promega) viability assay according to manufacturer's instruction to check the ATP production in each well.
Experiments on anti-proliferative activity against leukemia cells were conducted with some of the compounds of the invention.

Structure (SMILES)	GI50 (Homo sapiens, MV4-11, 72 h) [µM]	GI50 [µM]
COc1cc(C(F)(F)F)c(C(=O)Nc2cc(-n3cc(C(=O)NCCCN4CCOCC4)nn3)ccc2N2CCN(C)CC2)cn1 [Compound 16]	51.9	
C[C@@H]1CN(c2cc(F)c(-n3cc(C(=O)NC4CCN(C)CC4)nn3)cc2NC(=O)c2cnc(C(F)(F)F)cc2Cl)C[C@H](C)N1C [Compound 58]	0.68	
C[C@H]1CN(c2ccc(-n3cc(C(=O)NCCCN4CCOCC4)nn3)cc2NC(=O)c2c[nH]c(=O)cc2C(F)(F)F)CCN1C [Compound 10]	> 200	
Cc1cc(Cl)c(C(=O)Nc2cc(-n3cc(C(=O)NCCCN4CCOCC4)nn3)ccc2N2CCN(C)CC2)cc1N [Compound 49]	27.7	
CN1CCN(c2ccc(-n3cc(C(=O)NCCCN4CCOCC4)nn3)cc2NC(=O)c2ncc(N)cn2)CC1 [Compound 45]	11.2	
C[C@@H]1CN(c2cc(F)c(-n3cc(C(=O)NCCCN4CCOCC4)nn3)cc2NC(=O)c2cnc(Cl)cc2C(F)(F)F)C[C@H](C)N1C [Compound 5]	7.26	
Cc1cc(N)ncc1C(=O)Nc1cc(-n2cc(C(=O)NCCCN3CCOCC3)nn2)ccc1N1CCN(C)CC1 [Compound 24]	> 200	
C[C@@H]1CN(c2ccc(-n3cc(C(=O)NCCCN4CCOCC4)nn3)cc2NC(=O)c2c[nH]c(=O)cc2C(F)(F)F)C[C@H](C)N1C [Compound 2]	> 200	
CN1CCN(c2ccc(-n3cc(C(=O)NCCCN4CCOCC4)nn3)cc2NC(=O)c2cnc(S(C)(=O)=O)cc2C(F)(F)F)CC1 [Compound 15]	> 237	
Cc1cc(F)ncc1C(=O)Nc1cc(-n2cc(C(=O)NCCCN3CCOCC3)nn2)ccc1N1CCN(C)CC1 [Compound 25]	146	
COc1ccc(CNc2ccc(C(=O)Nc3cc(-n4cc(C(=O)NCCCN5CCOCC5)nn4)ccc3N3CCN(C)CC3)c(C(F)(F)F)n2)cc1 [Compound 42]	3.17	
Cc1nc(C(F)(F)F)ncc1C(=O)Nc1cc(-n2cc(C(=O)NCCCN3CCOCC3)nn2)ccc1N1CCN(C)CC1 [Compound 31]	106	
COc1cc(C(F)(F)F)c(C(=O)Nc2cc(-n3cc(C(=O)NCCCN4CCOCC4)nn3)c(F)cc2N2C[C@@H](C)N(C)[C@@H](C)C2)cn1 [Compound 55]	27.8	
CCN(CC)C(=O)c1cn(-c2cc(NC(=O)c3cnc(Cl)cc3Cl)c(N3C[C@@H](C)N(C)[C@@H](C)C3)cc2F)nn1 [Compound 56]	1.17	
CN1CCN(c2ccc(-n3cc(C(=O)NCCCN4CCOCC4)nn3)cc2NC(=O)c2c[nH]c(=O)cc2C(F)(F)F)CC1 [Compound 4]	> 200	
CN1CCN(c2cc(F)c(-n3cc(C(=O)NCCCN4CCOCC4)nn3)cc2NC(=O)c2c[nH]c(=O)cc2C(F)(F)F)CC1 [Compound 8]	> 200	
CN1CCN(c2ccc(-n3cc(C(=O)NCCCN4CCOCC4)nn3)cc2NC(=O)c2ccc(Cl)nc2C(F)(F)F)CC1 [Compound 37]	44.3	46.2
COc1cc(C(F)(F)F)c(C(=O)Nc2cc(-n3cc(C(=O)NC4CCN(C)CC4)nn3)c(F)cc2N2C[C@@H](C)N(C)[C@@H](C)C2)cn1 [Compound 54]	14.3	
CN1CCN(c2ccc(-n3cc(C(=O)NCCCN4CCOCC4)nn3)cc2NC(=O)c2cnc(C#N)cc2C(F)(F)F)CC1 [Compound 13]	21.8	23.7
CN1CCN(c2ccc(-n3cc(C(=O)NCCCN4CCOCC4)nn3)cc2NC(=O)c2cnc(C(F)(F)F)cc2Cl)CC1 [Compound 20]	2.86	3.19
C[C@@H]1CN(c2cc(F)c(-n3cc(C(=O)N4CCN(C)CC4)nn3)cc2NC(=O)c2cnc(Cl)cc2Cl)C[C@H](C)N1C [Compound 57]	0.74	
CSc1cc(C(F)(F)F)c(C(=O)Nc2cc(-n3cc(C(=O)NCCCN4CCOCC4)nn3)ccc2N2CCN(C)CC2)cn1 [Compound 14]	25.3	21.4
CSc1ncc(C(=O)Nc2cc(-n3cc(C(=O)NCCCN4CCOCC4)nn3)ccc2N2CCN(C)CC2)c(C(F)(F)F)n1 [Compound 27]	18.5	
CN1CCN(c2ccc(-n3cc(C(=O)NCCCN4CCOCC4)nn3)cc2NC(=O)c2nnc(Cl)cc2N)CC1 [Compound 33]	35.3	
CN1CCN(c2ccc(-n3cc(C(=O)NCCCN4CCOCC4)nn3)cc2NC(=O)c2ccc(C#N)nc2C(F)(F)F)CC1 [Compound 39]	20.2	
CSc1ccc(C(=O)Nc2cc(-n3cc(C(=O)NCCCN4CCOCC4)nn3)ccc2N2CCN(C)CC2)c(C(F)(F)F)n1 [Compound 43]	19.9	

Structure (SMILES)	GI50 (Homo sapiens, MV4-11, 72 h) [µM]	GI50 [µM]
COc1cnc(C(=O)Nc2cc(-n3cc(C(=O)NCCCN4CCOCC4)nn3)ccc2N2CCN(C)CC2)c(OC)n1 [Compound 36]	28.2	
Cc1c(Cl)ncc(C(=O)Nc2cc(-n3cc(C(=O)NCCCN4CCOCC4)nn3)ccc2N2CCN(C)CC2)c1Cl [Compound 21]	2.5	2.33
CCN(CC)C(=O)c1cn(-c2cc(NC(=O)c3cnc(F)cc3C(F)(F)F)c(N3C[C@@H](C)N(C)[C@@H](C)C3)cc2F)nn1 [Compound 53]	0.9	
COc1ccc(C(=O)Nc2cc(-n3cc(C(=O)NCCCN4CCOCC4)nn3)ccc2N2CCN(C)CC2)c(C(F)(F)F)n1 [Compound 38]	67.9	
CN1CCN(c2ccc(-n3cc(C(=O)NCCCN4CCOCC4)nn3)cc2NC(=O)c2cnc([S+](C)[O-])nc2C(F)(F)F)CC1 (stereo not shown) [Compound 28]	> 200	
CCOc1ncc(C(=O)Nc2cc(-n3cc(C(=O)NCCCN4CCOCC4)nn3)ccc2N2CCN(C)CC2)c(C(F)(F)F)n1 [Compound 29]	18.4	
CN1CCN(c2ccc(-n3cc(C(=O)NCCCN4CCOCC4)nn3)cc2NC(=O)c2cnc(Cl)cc2Cl)CC1 [Compound 19]	0.91	0.94
CN1CCN(c2ccc(-n3cc(C(=O)NCCCN4CCOCC4)nn3)cc2NC(=O)c2cnc(N)cc2C(F)(F)F)CC1 [Compound 18]	42.7	
CN1CCN(c2ccc(-n3cc(C(=O)NCCCN4CCOCC4)nn3)cc2NC(=O)c2cnc(F)cc2C(F)(F)F)CC1 [Compound 11]	2.14	2.01
COc1nc(SC)ncc1C(=O)Nc1cc(-n2cc(C(=O)NCCCN3CCOCC3)nn2)ccc1N1CCN(C)CC1 [Compound 30]	12.2	
C[C@@H]1CN(c2cc(F)c(-n3cc(C(=O)NCCCN4CCOCC4)nn3)cc2NC(=O)c2c[nH]c(=O)cc2C(F)(F)F)C[C@H](C)N1C [Compound 6]	> 200	
CN1CCN(c2ccc(-n3cc(C(=O)NCCCN4CCOCC4)nn3)cc2NC(=O)c2ncc(Cl)nc2Cl)CC1 [Compound 34]	0.37	
CN1CCN(c2ccc(-n3cc(C(=O)NCCCN4CCOCC4)nn3)cc2NC(=O)c2ccc(C(N)=O)nc2C(F)(F)F)CC1 [Compound 40]	> 200	
Cc1cc(C(F)(F)F)c(C(=O)Nc2cc(-n3cc(C(=O)NCCCN4CCOCC4)nn3)ccc2N2CCN(C)CC2)cn1 [Compound 12]	60.1	88.8
COc1cnc(C(=O)Nc2cc(-n3cc(C(=O)NCCCN4CCOCC4)nn3)ccc2N2CCN(C)CC2)c(Cl)n1 [Compound 35]	2.42	
C[C@@H]1CN(c2cc(F)c(-n3cc(C(=O)NC4CCN(C)CC4)nn3)cc2NC(=O)c2cnc(Cl)cc2C(F)(F)F)C[C@H](C)N1C [Compound 52]	1.22	
C[C@@H]1CN(c2ccc(-n3cc(C(=O)NCCCN4CCOCC4)nn3)cc2NC(=O)c2cnc(Cl)cc2C(F)(F)F)C[C@H](C)N1C [Compound 1]	1.38	
CN1CCN(c2ccc(-n3cc(C(=O)NCCCN4CCOCC4)nn3)cc2NC(=O)c2ccc(Cl)cc2C(F)(F)F)CC1 [Compound 46]	22.4	
CCN(CC)C(=O)c1cn(-c2cc(NC(=O)c3cnc(Cl)cc3C(F)(F)F)c(N3C[C@@H](C)N(C)[C@@H](C)C3)cc2F)nn1 [Compound 50]	0.49	
CN1CCN(c2ccc(-n3cc(C(=O)NCCCN4CCOCC4)nn3)cc2NC(=O)c2nnc(Cl)cc2Cl)CC1 [Compound 32]	1.24	
CN1CCN(c2ccc(-n3cc(C(=O)NCCCN4CCOCC4)nn3)cc2NC(=O)c2ccc(N)nc2C(F)(F)F)CC1 [Compound 41]	108	
CN1CCN(c2ccc(-n3cc(C(=O)NCCCN4CCOCC4)nn3)cc2NC(=O)c2ccc(S(C)(=O)=O)nc2C(F)(F)F)CC1 [Compound 44]	49.9	
Cc1ncc(C(=O)Nc2cc(-n3cc(C(=O)NCCCN4CCOCC4)nn3)ccc2N2CCN(C)CC2)c(C(F)(F)F)n1 [Compound 26]	75.2	61.7
C[C@@H]1CN(c2cc(F)c(-n3cc(C(=O)N4CCN(C)CC4)nn3)cc2NC(=O)c2cnc(Cl)cc2C(F)(F)F)C[C@H](C)N1C [Compound 51]	1.14	
CN1CCN(c2ccc(-n3cc(C(=O)NCCCN4CCOCC4)nn3)cc2NC(=O)c2cnc(C#N)cc2N(C)C)CC1 [Compound 23]	196	
CN1CCN(c2ccc(-n3cc(C(=O)NCCCN4CCOCC4)nn3)cc2NC(=O)c2cnc(C(F)F)cc2Cl)CC1 [Compound 22]	39.7	
